This is an account of results in patent publication US20250206718A1, “NITROGEN-CONTAINING HETEROCYCLIC DERIVATIVE INHIBITOR, PREPARATION METHOD THEREFOR AND USE THEREOF” (SHANGHAI HANSOH BIOMEDICAL CO., LTD., priority 2022, published 2025).

Chain of Ba/F3 EGFR Del19/C797S cells (P00533 with tags, fused parts or gaps DEL746-750/C797S, form open): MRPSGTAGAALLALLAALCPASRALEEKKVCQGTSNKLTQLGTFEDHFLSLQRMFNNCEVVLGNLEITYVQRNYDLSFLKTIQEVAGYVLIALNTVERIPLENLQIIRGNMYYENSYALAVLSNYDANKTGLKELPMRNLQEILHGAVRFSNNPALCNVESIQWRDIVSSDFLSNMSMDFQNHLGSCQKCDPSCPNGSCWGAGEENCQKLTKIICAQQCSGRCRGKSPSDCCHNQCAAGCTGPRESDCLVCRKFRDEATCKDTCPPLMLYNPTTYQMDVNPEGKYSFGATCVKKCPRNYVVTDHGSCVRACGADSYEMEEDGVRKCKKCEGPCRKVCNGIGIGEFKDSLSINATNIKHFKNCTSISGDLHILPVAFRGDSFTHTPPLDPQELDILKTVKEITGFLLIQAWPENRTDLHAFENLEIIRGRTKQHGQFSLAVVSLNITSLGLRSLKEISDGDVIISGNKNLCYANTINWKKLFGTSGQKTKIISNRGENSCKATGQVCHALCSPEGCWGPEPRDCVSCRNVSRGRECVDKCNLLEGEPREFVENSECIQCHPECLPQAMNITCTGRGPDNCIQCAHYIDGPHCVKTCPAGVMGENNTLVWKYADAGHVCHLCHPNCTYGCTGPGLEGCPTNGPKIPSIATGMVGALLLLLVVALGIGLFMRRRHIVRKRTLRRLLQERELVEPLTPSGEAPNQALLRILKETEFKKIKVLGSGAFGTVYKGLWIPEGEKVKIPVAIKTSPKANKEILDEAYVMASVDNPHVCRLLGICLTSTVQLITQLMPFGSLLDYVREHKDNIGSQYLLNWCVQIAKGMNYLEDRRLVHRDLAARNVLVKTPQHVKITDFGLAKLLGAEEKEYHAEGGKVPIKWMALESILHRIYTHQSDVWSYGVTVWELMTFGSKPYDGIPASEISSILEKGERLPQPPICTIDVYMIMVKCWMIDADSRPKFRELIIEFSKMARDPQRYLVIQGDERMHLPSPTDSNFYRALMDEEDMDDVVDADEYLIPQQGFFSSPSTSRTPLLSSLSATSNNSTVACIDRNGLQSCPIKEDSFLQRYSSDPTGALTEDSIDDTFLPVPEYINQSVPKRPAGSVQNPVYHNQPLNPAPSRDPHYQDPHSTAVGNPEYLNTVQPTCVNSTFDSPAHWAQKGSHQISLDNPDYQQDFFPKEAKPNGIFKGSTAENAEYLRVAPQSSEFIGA

The target in one series is Ba/F3 EGFR Del19/C797S cells (Homo sapiens, UniProt P00533, C797S, cells depend on it, form not given). The experiment in a line: Cell proliferation inhibition (Cell Titer-Glo), Ba/F3 EGFR Del19/C797S. Type of series: cell-based, mouse. To be noted: 72 hours, CellTiter-Glo, read-out: Ba/F3 EGFR Del19/C797S IC50. The source says:
Experimental objective: The objective of this test example is to test the inhibitory activity of compounds on the proliferation of different EGFR C797S drug-resistant mutant cell lines Ba/F3 EGFR Del19/T790M/C797S, Ba/F3 EGFR L858R/T790M/C797S, and Ba/F3 EGFR Del19/C797S.
• Ba/F3 EGFR Del19/T790M/C797S cells were purchased from KYinno Biotechnology Co., Ltd.; • Ba/F3 EGFR Del19/C797S cells were purchased from CoBioer Biosciences Co., Ltd.; • Ba/F3 EGFR L858R/T790M/C797S cells were purchased from CoBioer Biosciences Co., Ltd.; • Cell Titer-Glo was purchased from Promega, with a catalog number of G7573; • RPMI 1640 was purchased from Gibco, with a catalog number of 22400089; • FBS was purchased from Gibco, with a catalog number of 10091148; • cell culture plates were purchased from Corning, with a catalog number of 3610.
The inhibitory activity of the compound on the proliferation of different EGFR C797S drug-resistant mutant cell lines was detected using the Cell Titer-Glo method. The different cell lines were cultured in RPMI 1640 complete culture medium containing 10% FBS under conditions of 37° C. and 5% CO2, the cells were collected by centrifugation when growing to a certain density, and adjusted to appropriate cell density after counting, the cells were spread on a white 96-well plate at 90 μL/well, and cultured in a 37° C., 5% CO2 incubator overnight, prepared compound solutions of different concentrations were added at 10 μL/well, corresponding solvent controls were set, and all wells were cultured in a 37° C., 5% CO2 incubator for 72 hours, 50 μL of CellTiter-Glo solution was added to each well, shook and mixed evenly, and incubated in the dark for 10 minutes, and a BioTek Synergy H1 microplate reader was used for reading.
The luminescence signal value was used to calculate the inhibition rate. Graphpad Prism software was used to fit the concentration and inhibition rate to a nonlinear regression curve, so as to obtain the IC50 value, as shown in the Table below for details.
As for `[2H]C([2H])([2H])c1nn(C)cc1-c1nccc(Nc2cc3c(C(C)C)ccc(N4C[C@H](CS(C)(=O)=O)[C@H]4C)c3cn2)n1` [Example 3, 5-isopropyl-8-((2R,3S)-2-methyl-3-((methanesulfonyl)methyl)azetidin-1-yl)-N-(2-(1-methyl-3-(methyl-d3)-1H-pyrazol-4-yl)pyrimidin-4-yl)isoquinolin-3-amine], the GI50 is 16 nM.
Regarding `CC(C)c1ccc(N2C[C@H](CS(C)(=O)=O)[C@H]2C)c2cnc(Nc3ccnc(-c4cn(C[C@H]5CCN5C)nc4Cl)n3)cc12` [Example 146, N-(2-(3-chloro-1-(((R)-1-methylazetidin-2-yl)methyl)-1H-pyrazol-4-yl)pyrimidin-4-yl)-5-isopropyl-8-((2R,3S)-2-methyl-3-((methanesulfonyl)methyl)azetidin-1-yl)isoquinolin-3-amine], the GI50 turned out to be 80 nM.
Turning to `CC(C)c1ccc(N2C[C@H](CS(C)(=O)=O)[C@H]2C)c2cnc(Nc3ccnc(-c4cn(C5CC6CN(C)CC6C5)nc4Cl)n3)cc12` (stereo partly drawn) [Example 150, N-(2-(3-chloro-1-(2-methyloctahydrocyclopentadieno[c]pyrrol-5-yl)-1H-pyrazol-4-yl)pyrimidin-4-yl)-5-isopropyl-8-((2R,3S)-2-methyl-3-((methanesulfonyl)methyl)azetidin-1-yl)isoquinolin-3-amine], the GI50 came to 70 nM.
Same read-out and setting: the figure for `CC(C)c1ccc(N2C[C@H](CS(C)(=O)=O)[C@H]2C)c2cnc(Nc3ccnc(-c4cn(C5CC(C#N)C5)nc4Cl)n3)cc12` (stereo partly drawn) [Example 151A, 3-(3-chloro-4-(4-((5-isopropyl-8-((2R,3S)-2-methyl-3-((methanesulfonyl)methyl)azetidin-1-yl)isoquinolin-3-yl)amino)pyrimidin-2-yl)-1H-pyrazol-1-yl)cyclobutane-1-carbonitrile] is 41 nM.
Take `CC(C)c1ccc(N2C[C@H](CS(C)(=O)=O)[C@H]2C)c2cnc(Nc3ccnc(-c4cn(C5CC(O)C5)nc4Cl)n3)cc12` (stereo partly drawn) [Example 154A, 3-(3-chloro-4-(4-((5-isopropyl-8-((2R,3S)-2-methyl-3-((methanesulfonyl)methyl)azetidin-1-yl)isoquinolin-3-yl)amino)pyrimidin-2-yl)-1H-pyrazol-1-yl)cyclobutan-1-ol]: the GI50 worked out at 22 nM.
`CC(C)c1ccc(N2C[C@H](CS(C)(=O)=O)[C@H]2C)c2cnc(Nc3ccnc(-c4cn(C5CC(=O)C5)nc4Cl)n3)cc12` [Example 156, 3-(3-chloro-4-(4-((5-isopropyl-8-((2R,3S)-2-methyl-3-((methanesulfonyl)methyl)azetidin-1-yl)isoquinolin-3-yl)amino)pyrimidin-2-yl)-1H-pyrazol-1-yl)cyclobutan-1-one]: the GI50 was found to be 42 nM.
Regarding `CC(C)c1ccc(N2C[C@H](CS(C)(=O)=O)[C@H]2C)c2cnc(Nc3ccnc(-c4cn(C5CCN(C)CC5)nc4Cl)n3)cc12` [Example 158, N-(2-(3-chloro-1-(1-methylpiperidin-4-yl)-1H-pyrazol-4-yl)pyrimidin-4-yl)-5-isopropyl-8-((2R,3S)-2-methyl-3-((methanesulfonyl)methyl)azetidin-1-yl)isoquinolin-3-amine], the GI50 worked out at 50 nM.
Consider `CC(C)c1ccc(N2C[C@H](CS(C)(=O)=O)[C@H]2C)c2cnc(Nc3ccnc(-c4cn(CC5CCO5)nc4Cl)n3)cc12` (stereo partly drawn) [Example 165, N-(2-(3-chloro-1-(oxetan-2-ylmethyl)-1H-pyrazol-4-yl)pyrimidin-4-yl)-5-isopropyl-8-((2R,3S)-2-methyl-3-((methanesulfonyl)methyl)azetidin-1-yl)isoquinolin-3-amine], for which the GI50 came to 22 nM.
As to `Cc1nn(C)cc1-c1nccc(Nc2cc3c(C(C)C)ccc(N4CC(CS(C)(=O)=NC#N)C4)c3cn2)n1` (stereo not drawn) [Example 167, N-(((1-(3-((2-(1,3-dimethyl-1H-pyrazol-4-yl)pyrimidin-4-yl)amino)-5-isopropylisoquinolin-8-yl)azetidin-3-yl)methyl)(methyl)(carbonyl)-16-sulfanylidene)cyanamide], the GI50 was found to be 74 nM.
Consider `CC(C)c1c(N)cc(N2C[C@H](CS(C)(=O)=O)[C@H]2C)c2cnc(Nc3ccnc(-c4cn(C)nc4Cl)n3)cc12` [Example 169, N3-(2-(3-chloro-1-methyl-1H-pyrazol-4-yl)pyrimidin-4-yl)-5-isopropyl-8-((2R,3S)-2-methyl-3-((methanesulfonyl)methyl)azetidin-1-yl)isoquinoline-3,6-diamine], for which the GI50 was 52 nM.
On the same count and under the same terms, the same measure for `CC(C)c1ccc(N2C[C@H](CS(C)(=O)=O)[C@H]2C)c2cnc(Nc3ccnc(-c4c[nH]nc4Cl)n3)cc12` [Example 170, N-(2-(3-chloro-1H-pyrazol-4-yl)pyrimidin-4-yl)-5-isopropyl-8-((2R,3S)-2-methyl-3-((methanesulfonyl)methyl)azetidin-1-yl)isoquinolin-3-amine]: 60 nM; for `CC(C)c1ccc(N2C[C@H](CS(C)(=O)=O)[C@H]2C)c2cnc(Nc3ccnc(-c4cn(C(F)F)nc4Cl)n3)cc12` [Example 177, N-(2-(3-chloro-1-(difluoromethyl)-1H-pyrazol-4-yl)pyrimidin-4-yl)-5-isopropyl-8-((2R,3S)-2-methyl-3-((methanesulfonyl)methyl)azetidin-1-yl)isoquinolin-3-amine]: 43 nM; for `CC(C)c1c(F)cc(N2CC(NS(C)(=O)=O)C2)c2cnc(Nc3ccnc(-c4cn(C)nc4Cl)n3)cc12` [Example 178, N-(1-(3-((2-(3-chloro-1-methyl-1H-pyrazol-4-yl)pyrimidin-4-yl)amino)-6-fluoro-5-isopropylisoquinolin-8-yl)azetidin-3-yl)methanesulfonamide]: 19 nM.
Regarding `CC(C)c1ccc(N2C[C@H](CS(C)(=O)=O)[C@H]2C)c2cnc(Nc3ccnc(-c4cn(C(C)CC#N)nc4Cl)n3)cc12` (stereo partly drawn) [Example 185, 3-(3-chloro-4-(4-((5-isopropyl-8-((2R,3S)-2-methyl-3-((methanesulfonyl)methyl)azetidin-1-yl)isoquinolin-3-yl)amino)pyrimidin-2-yl)-1H-pyrazol-1-yl)butyronitrile], the GI50 was 80 nM.
On to `CC1CC(Cn2cc(-c3nccc(Nc4cc5c(C(C)C)ccc(N6C[C@H](CS(C)(=O)=O)[C@H]6C)c5cn4)n3)c(Cl)n2)O1` (stereo partly drawn) [Example 188, N-(2-(3-chloro-1-((4-methyloxetan-2-yl)methyl)-1H-pyrazol-4-yl)pyrimidin-4-yl)-5-isopropyl-8-((2R,3S)-2-methyl-3-((methanesulfonyl)methyl)azetidin-1-yl)isoquinolin-3-amine], for which the GI50 was 65 nM.

Test system in another series: not listed separately
As to the kind of experiment: Rat pharmacokinetic evaluation test. Conditions: Sprague-Dawley (SD), po, SD rats, male, p.o. 5 mg/kg, plasma. The series is classed as in vivo. As to the method:
SD rats were used as test animals to study the pharmacokinetic behavior of the compounds of the present invention in the rat body (plasma) after oral administration at a dose of 5 mg/kg.
2.2 Experimental Animals: 3 SD Rats/Group, Male, from Shanghai Jiesijie Experimental Animal Co., Ltd., Animal Production License Number (SCXK (Shanghai) 2013-0006 No. 311620400001794).
• Oral administration drug preparation: 20% solutol HS15 in 0.5% MC (methylcellulose)
20 g of a Solutol HS15 solid and 0.5 g of a MC solid powder were weighed and dissolved in 80 mL of purified water, and the mixture was vortexed, mixed until uniform, and subjected to ultrasound treatment to obtain a clear solution of 20% solutol HS15 in 0.5% MC.
The example compound was weighed into a 20 mL glass bottle, the solution was added thereto and the mixture was subjected to ultrasound treatment for 10 minutes to obtain a clear solution with a concentration of 0.5 mg/mL.
3 male SD rats were administered p.o. respectively after the 3 male SD rats were fasted overnight; the p.o. dose was 5 mg/kg and the administration volume was 10 mL/kg.
Blood collection: Before and after administration to rats, 0.2 mL of blood was collected from the jugular vein at 0.25, 0.5, 1, 2, 4, 6, 8 and 24 h, and placed in an EDTA-K2 anticoagulation tube, which was centrifuged at 6000 rpm at 4° C. for 6 min to separate plasma which was stored at −80° C.; the rats were fed 4 h after administration.
1) 160 μL of acetonitrile was added to 40 μL of plasma sample for precipitation, mixed and centrifuged at 3500×g for 5 to 20 min.
2) the treated supernatant solution was taken and subjected to LC/MS/MS to analyze the concentrations of the test compounds. LC/MS/MS analysis instrument: AB Sciex API 4000 Qtrap.
• Liquid phase conditions: Shimadzu LC-20AD pump • Chromatographic column: Agilent ZORBAX XDB-C18 (50×2.1 mm, 3.5 μm) mobile phase: liquid A is 0.1% aqueous formic acid solution, liquid B is acetonitrile • Flow rate: 0.4 mL/min • Elution time: 0-4.0 min, the eluent is as follows:
The main pharmacokinetic parameters were calculated using WinNonlin 6.1.
What is called AUC(0-t) is exposure summed from dosing to a finite time, without extrapolation to infinity. As usually defined, the Cmax is the peak of the concentration-time curve. In general, half-life refers to the time needed for the level to fall by half in the phase considered. Read a low half-life as rapid decline. Consider `[2H]C([2H])([2H])c1nn(C)cc1-c1nccc(Nc2cc3c(C(C)C)ccc(N4C[C@H](CS(C)(=O)=O)[C@H]4C)c3cn2)n1` [Example 3, 5-isopropyl-8-((2R,3S)-2-methyl-3-((methanesulfonyl)methyl)azetidin-1-yl)-N-(2-(1-methyl-3-(methyl-d3)-1H-pyrazol-4-yl)pyrimidin-4-yl)isoquinolin-3-amine], for which the AUC(0-t) amounted to 2380 ng·h/mL, the concentration peaked (Cmax) at 458 ng/mL and the half-life is 4.1 h.
